The text below walks through data of patent publication US9540343B2 (Gilead Sciences, Inc., priority 2011, dated 2017).

Structures are written as SMILES.

One series deals with HIV-IIIb. Put plainly: Test A: Antiviral assay in MT4 cells. The format is cell-based, HIV-1. The note with it: Human immunodeficiency virus 1, IIIB, MT4, 120 h, read-out: % inhibition at 2 μM, percent inhibition of virus-induced cell killing, from dose response curve at 2 uM drug; MT-4 cells infected with HIV-IIIb, 5 days, CellTiter-Glo.
Another series is described as follows: in vitro. The note with it: human, uninfected MT-4 cells, CC50 (nM), same protocol as Test A, CellTiter-Glo. The gist of the method:
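Cytoprotection read-out: CellTiter-Glo chemiluminescence after 5 days at 37 °C of HIV-IIIb-infected MT-4 cells (m.o.i. 0.003) with compound in 10-point 3-fold dilutions, quadruplicate, 10% FBS. Cytotoxicity (CC50) measured identically without virus.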
(ATP-based viability assays read luminescence as a measure of living cells.)

The term inhibition denotes the change of the read-out against control, counted positive when it falls. One may read the CC50 as the concentration at which the toxic effect on the cells reaches its halfway point. Take `O=C(Cn1nc(C(F)F)c2c1C(F)(F)CCC2(F)F)N[C@@H](Cc1cc(F)cc(F)c1)c1ncncc1-c1ccc(Cl)cc1` [Example 524D, (S)—N-(1-(5-(4-chlorophenyl)pyrimidin-4-yl)-2-(3,5-difluorophenyl)ethyl)-2-(3-(difluoromethyl)-4,4,7,7-tetrafluoro-4,5,6,7-tetrahydro-1H-indazol-1-yl)acetamide]: the inhibition at 2 µM in the series on HIV-IIIb was 78%. Moreover, the 50% cytotoxic concentration (CC50) at 5 days in the series “in vitro” was 8530 nM.
As for `NC(=O)c1cc(-c2cccnc2[C@H](Cc2cc(F)cc(F)c2)NC(=O)Cn2nc(C(F)(F)F)c3c2CCC3O)ccc1F` (stereo partly drawn) [Example 525, 5-(2-((1S)-2-(3,5-difluorophenyl)-1-(2-(4-hydroxy-3-(trifluoromethyl)-5,6-dihydrocyclopenta[c]pyrazol-1(4H)-yl)acetamido)ethyl)pyridin-3-yl)-2-fluorobenzamide], the inhibition at 2 µM with HIV-IIIb is 83%. Further, in “in vitro”, the CC50 at 5 days was more than 53200 nM.
In the same order, the values of `CC(C)(C)OC(=O)NCc1ccc2c(CC(=O)N[C@@H](Cc3cc(F)cc(F)c3)c3ncccc3-c3ccc(Cl)cc3)c[nH]c2c1` [Example 526, (S)-tert-butyl (3-(2-(1-(3-(4-chlorophenyl)pyridin-2-yl)-2-(3,5-difluorophenyl)ethylamino)-2-oxoethyl)-1H-indol-6-yl)methylcarbamate] are 50% and 10000 nM.
The matching figures for `NC(=O)c1cccc(-c2cccnc2[C@H](Cc2cc(F)cc(F)c2)NC(=O)Cc2c[nH]c3cc(C(F)(F)F)ccc23)c1` [Example 527E, (S)-3-(2-(2-(3,5-difluorophenyl)-1-(2-(6-(trifluoromethyl)-1H-indol-3-yl)acetamido)ethyl)pyridin-3-yl)benzamide]: 66% and 10600 nM.
The matching figures for `O=C(Cn1nc(C(F)F)cc1C(F)F)N[C@@H](Cc1cc(F)cc(F)c1)c1ccccn1` [Example 528, (S)-2-(3,5-bis(difluoromethyl)-1H-pyrazol-1-yl)-N-(2-(3,5-difluorophenyl)-1-(pyridin-2-yl)ethyl)acetamide]: 0% and more than 53200 nM.
Take `CC(C)(C)OC(=O)NCc1ccc2[nH]cc(CC(=O)N[C@@H](Cc3cc(F)cc(F)c3)c3ncccc3-c3cccc(C(N)=O)c3)c2c1` [Example 529, (S)-tert-butyl (3-(2-(1-(3-(3-carbamoylphenyl)pyridin-2-yl)-2-(3,5-difluorophenyl)ethylamino)-2-oxoethyl)-1H-indol-5-yl)methylcarbamate]: the inhibition at 2 µM with HIV-IIIb is 53%. In the series “in vitro”, this compound had a CC50 at 5 days of 13000 nM.
Consider `NC(=O)c1cc(-c2cccnc2[C@H](Cc2cc(F)cc(F)c2)NC(=O)Cc2c[nH]c3c(F)cc(F)cc23)ccc1F` [Example 530E, (S)-5-(2-(1-(2-(5,7-difluoro-1H-indol-3-yl)acetamido)-2-(3,5-difluorophenyl)ethyl)pyridin-3-yl)-2-fluorobenzamide], for which the inhibition at 2 µM with HIV-IIIb was 55%. This compound also returned a half-maximal cytotoxic concentration (CC50) at 5 days in “in vitro” of 15300 nM.
In the same order, the values of `NC(=O)c1cc(-c2cccnc2[C@H](Cc2cc(F)cc(F)c2)NC(=O)Cc2c[nH]c3cc(F)c(F)cc23)ccc1F` [Example 533E, (S)-5-(2-(1-(2-(5,6-difluoro-1H-indol-3-yl)acetamido)-2-(3,5-difluorophenyl)ethyl)pyridin-3-yl)-2-fluorobenzamide] are 142% and 19300 nM.
In the same order, the values of `Cc1cccc2[nH]cc(CC(=O)N[C@@H](Cc3cc(F)cc(F)c3)c3ncccc3-c3ccc(Cl)cc3)c12` [Example 534, (S)—N-(1-(3-(4-chlorophenyl)pyridin-2-yl)-2-(3,5-difluorophenyl)ethyl)-2-(4-methyl-1H-indol-3-yl)acetamide] are 29% and 9820 nM.
